The target in experiment [1] is neuropeptide Y receptor. To be noted: in vitro test for neuropeptide Y receptor antagonism; cited from earlier work.
For experiment [2], the target named is T1, Y1 (Homo sapiens, UniProt P25929).
T1 sequence (P25929 1-384): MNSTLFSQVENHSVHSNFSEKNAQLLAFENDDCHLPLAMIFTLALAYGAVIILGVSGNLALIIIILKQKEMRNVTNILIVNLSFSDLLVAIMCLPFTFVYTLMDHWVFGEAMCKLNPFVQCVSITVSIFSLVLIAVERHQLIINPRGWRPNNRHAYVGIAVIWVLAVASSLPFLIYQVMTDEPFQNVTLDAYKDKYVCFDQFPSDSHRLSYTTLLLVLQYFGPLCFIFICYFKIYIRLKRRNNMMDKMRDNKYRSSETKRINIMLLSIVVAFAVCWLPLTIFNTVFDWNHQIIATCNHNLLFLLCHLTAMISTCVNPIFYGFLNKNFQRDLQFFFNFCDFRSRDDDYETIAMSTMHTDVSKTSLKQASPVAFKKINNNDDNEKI
In words: endogenous NPY response in Bowes melanoma cell host. To be noted: at 10 uM; human Bowes melanoma cell line (HMCB).

These results are taken from patent US6399631B1, “Carbazole neuropeptide Y5 antagonists” (Pfizer Inc., priority 1999, dated 2002).

The structures appear in SMILES notation.

With `Cc1cc(N2CCCC2)cc(/C=C/c2cccc(C(F)(F)F)c2)n1` [(E)-2-methyl4-pyrrolidino-6-[2-(3-trifluoromethylphenyl)vinyl]pyridine], the IC50 in experiment [1] is 4.1 nM. Turning to `NC(N)=NCCC[C@@H](NC(=O)C(c1ccccc1)c1ccccc1)C(=O)NCc1ccc(O)cc1` [BIBP3226], the “endogenous NPY response” value in experiment [2] is recorded as “completely blocked”.

The term IC50 denotes the concentration needed to halve the response being measured.
